According to patent publication US11691928B2, “Compositions, systems and methods for delivery of an element in response to biological demand” (Lucent Biosciences, Inc., priority 2018, dated 2023):

What was measured:
[1] = Effect of composition on pH of surrounding tap water; format: physicochemical; settings: 4 ppm iron; tap water alone 6.93
From the text: Since the pH of water is an important factor in biology for microorganism growth and survival, experiments were undertaken to determine what effect the compositions had on the pH of surrounding water.
The effects of 4 ppm iron-loaded composition (“Fe—WP”), iron chloride and iron sulfate on the pH of tap water was examined. […] However, the same amount of iron with sources of iron chloride and iron sulfate reduced the pH of tap water within a range of 1.6-2.9 units.

mung bean plants = assay: Plant growth study with salts or compositions comprising zinc or manganese on wood pulp in soil at elevated concentrations; format: in vivo
Protocol: Mung bean seeds were planted in 2 g of sterile sunshine mix soil in autoclaved jars. […] The wood pulp, acting as the carrier, was Canfor 350/70-1 (carrier C from Table 1). […] The root length was measured from start of roots to longest root tip. […] The plants to be used in the presence of compositions as disclosed herein were sowed in 2 g of sunshine mix to which 0.1 g of the composition was added, made of various concentrations of zinc or manganese. These were all watered with 5 mL deionized water. The beans grew in this treatment for 9 further days.

Compound	PH of tap water [1]	toxicity for mung bean plants (mung bean plants; 2000 ppm in soil)	mung bean stem height and root length growth (mung bean plants; 2000 ppm zinc as salt in soil, 9 days, FIGS. 7(a), 7(b))
O=S(=O)([O-])[O-].O=S(=O)([O-])[O-].O=S(=O)([O-])[O-].[Fe+3].[Fe+3] [Fe2(SO4)3, iron sulfate]	4.17	–	–
[Cl-].[Cl-].[Zn+2] [zinc, zinc chloride]	–	exhibits toxicity	reduced stem height and root length growth
iron chloride [FeCl3]	4.03	–	–
